This is an account of results in US20100324312A1, “NOVEL METHYLATED CATECHIN AND COMPOSITION CONTAINING THE SAME” (INCORPORATED ADMINSTRATIVE AGENCY NATIONAL AGRICULTURE AND …, priority 2007, published 2010).

For assay [1] the following is noted: compared with EGCG; cited from earlier work.
Assay [2] relates to BMMC (mouse bone marrow-derived mast cells). As to the kind of experiment: Histamine release inhibitory activity in mouse mast cells (IgE-sensitized BMMC, DNP-HSA induced degranulation). It is filed as cell-based. To be noted: 12.5 and 25 μg/mL test sample, 10 min incubation, DNP-HSA antigen 20 min; histamine in supernatant relative to control (distilled water); FIG. 2; compared with epigallocatechin-3-O-gallate and epigallocatechin-3-O-(3-O-methyl)gallate. The protocol:
FIG. 2 is a graph showing the histamine release inhibitory activity in mouse mast cells. In FIG. 2, numeral 1 denotes 12.5 μg/mL of epigallocatechin-3-O-gallate; numeral 2 denotes 25 μg/mL of epigallocatechin-3-O-gallate; numeral 3 denotes 12.5 μg/mL of epigallocatechin-3-O-(3-O-methyl)gallate: numeral 4 denotes 25 μg/mL of epigallocatechin-3-O-(3-O-methyl)gallate; numeral 5 denotes 12.5 μg/mL of epi(3-O-methyl)gallocatechin-3-O-(3,5-O-dimethyl)gallate; and numeral 6 denotes 25 μg/mL of epi(3-O-methyl)gallocatechin-3-O-(3,5-O-dimethyl)gallate.
The effect of epi(3-O-methyl)gallocatechin-3-O-(3,5-O-dimethyl)gallate was determined based on the histamine release inhibitory activity in mouse mast cells. Epigallocatechin-3-O-gallate and epigallocatechin-3-O-(3-O-methyl)gallate known to have stronger antiallergic activity than epigallocatechin-3-O-gallate were used as comparison substances. […] Then, DNP-HSA (antigen) was added thereto to induce degranulation (20 minutes), and the amount of histamine in the supernatant was measured by liquid chromatography. The antiallergic activity was evaluated based on the relative value with respect to the value for the control (distilled water). […]

Take `COc1c(O)cc(C(=O)O[C@@H]2Cc3c(O)cc(O)cc3O[C@@H]2c2cc(O)c(O)c(O)c2)cc1O` [epigallocatechin-3-O-(4-O-methyl)gallate]: the antiallergic activity result in assay [1] is listed as “stronger antiallergic activity than EGCG”.

Take `COc1cc([C@H]2Oc3cc(O)cc(O)c3C[C@H]2OC(=O)c2cc(OC)c(O)c(OC)c2)cc(O)c1O` [epi(3-O-methyl)gallocatechin-3-O-(3,5-O-dimethyl)gallate]: the “histamine release inhibitory activity” value in assay [2] is given as “stronger than those of the comparison substances”.

As to “epigallocatechin-3-O-(3-O-methyl)gallate”, in assay [1], the antiallergic activity result is recorded as “stronger antiallergic activity than EGCG”.
